Reference: publication PMC6637425 (ChemMedChem, 2019)

Tests used:
BACE1 enzyme = BACE1 enzyme (Homo sapiens, UniProt P56817); assay: BACE1 enzyme inhibition, Ki from kinetic data under tight-binding conditions; assay type: biochemical
BACE2 enzyme = molecular target: T1, BACE2 enzyme (Homo sapiens, UniProt Q9Y5Z0); assay: BACE2 enzyme inhibition, Ki from kinetic data under tight-binding conditions; assay type: biochemical; details: Ki (nM) BACE2, Table 3
T1 sequence (Q9Y5Z0 63-518): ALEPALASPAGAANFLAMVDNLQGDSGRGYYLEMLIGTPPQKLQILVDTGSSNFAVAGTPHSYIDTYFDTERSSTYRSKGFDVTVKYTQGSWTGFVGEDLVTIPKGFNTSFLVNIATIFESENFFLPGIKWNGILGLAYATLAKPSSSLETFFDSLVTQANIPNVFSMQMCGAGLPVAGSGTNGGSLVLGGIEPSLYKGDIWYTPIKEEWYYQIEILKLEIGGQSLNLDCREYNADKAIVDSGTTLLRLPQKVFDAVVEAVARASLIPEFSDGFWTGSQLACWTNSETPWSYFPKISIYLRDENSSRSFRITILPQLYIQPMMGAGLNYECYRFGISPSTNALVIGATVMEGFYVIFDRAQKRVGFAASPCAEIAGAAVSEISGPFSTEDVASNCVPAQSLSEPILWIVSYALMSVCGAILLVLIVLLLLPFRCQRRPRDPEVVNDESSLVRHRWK

BACE1 enzyme, sequence (P56817 46-501): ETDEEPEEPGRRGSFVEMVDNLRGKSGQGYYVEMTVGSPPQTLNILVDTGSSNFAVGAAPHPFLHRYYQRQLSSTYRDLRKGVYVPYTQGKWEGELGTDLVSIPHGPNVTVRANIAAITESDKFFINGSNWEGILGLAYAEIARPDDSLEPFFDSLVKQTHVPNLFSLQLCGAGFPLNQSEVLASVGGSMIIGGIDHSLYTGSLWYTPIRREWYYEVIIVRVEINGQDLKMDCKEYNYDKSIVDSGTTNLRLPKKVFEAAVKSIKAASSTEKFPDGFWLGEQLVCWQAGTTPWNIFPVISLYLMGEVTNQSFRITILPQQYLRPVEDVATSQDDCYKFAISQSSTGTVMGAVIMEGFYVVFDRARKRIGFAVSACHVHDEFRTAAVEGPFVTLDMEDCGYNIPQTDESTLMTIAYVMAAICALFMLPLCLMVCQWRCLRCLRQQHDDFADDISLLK

## COc1cccc(CNC[C@@H](O)[C@H](Cc2ccccc2)NC(=O)c2cc(C)cc(C(=O)N(C)Cc3nc(C)co3)c2)c1 [inhibitor 3n, N^1-((2S,3R)-3-Hydroxy-4-((3-methoxybenzyl)amino)-1-phenylbutan-2-yl)-N^3,5-dimethyl-N^3-((4-methyloxazol-2-yl)methyl)isophthalamide]
BACE1 enzyme; Ki (nM) BACE1, Table 3
  Ki: 25.4 nM
BACE1 enzyme; ratio of Ki values
  selectivity for BACE1 against BACE2: > 75 fold
BACE2 enzyme
  Ki: 1920 nM
